Structures are written as SMILES.

Chain of human αvβ3 receptor (P06756 31-889 limits assumed): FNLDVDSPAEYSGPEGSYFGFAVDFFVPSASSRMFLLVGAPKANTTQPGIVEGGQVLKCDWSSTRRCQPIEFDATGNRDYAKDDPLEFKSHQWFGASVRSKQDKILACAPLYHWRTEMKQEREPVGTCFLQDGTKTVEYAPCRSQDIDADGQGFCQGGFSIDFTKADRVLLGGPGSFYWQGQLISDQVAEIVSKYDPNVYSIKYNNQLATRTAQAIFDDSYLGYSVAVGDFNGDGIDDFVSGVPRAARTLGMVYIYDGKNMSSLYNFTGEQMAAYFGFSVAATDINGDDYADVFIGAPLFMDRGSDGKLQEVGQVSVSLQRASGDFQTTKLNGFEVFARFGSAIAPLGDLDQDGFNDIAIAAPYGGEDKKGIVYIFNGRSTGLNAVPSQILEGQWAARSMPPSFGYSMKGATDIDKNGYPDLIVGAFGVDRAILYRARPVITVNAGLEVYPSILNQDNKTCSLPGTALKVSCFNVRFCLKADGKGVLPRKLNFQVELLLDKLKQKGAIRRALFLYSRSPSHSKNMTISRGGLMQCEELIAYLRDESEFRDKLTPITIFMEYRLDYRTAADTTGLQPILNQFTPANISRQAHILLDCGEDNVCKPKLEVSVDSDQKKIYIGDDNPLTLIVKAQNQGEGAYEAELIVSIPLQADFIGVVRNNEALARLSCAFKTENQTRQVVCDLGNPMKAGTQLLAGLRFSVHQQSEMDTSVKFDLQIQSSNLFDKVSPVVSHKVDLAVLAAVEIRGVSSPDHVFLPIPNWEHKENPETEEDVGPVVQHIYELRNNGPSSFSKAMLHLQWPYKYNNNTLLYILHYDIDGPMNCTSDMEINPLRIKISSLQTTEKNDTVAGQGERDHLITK
Chain of human αvβ3 receptor (P06756 891-1048 limits assumed): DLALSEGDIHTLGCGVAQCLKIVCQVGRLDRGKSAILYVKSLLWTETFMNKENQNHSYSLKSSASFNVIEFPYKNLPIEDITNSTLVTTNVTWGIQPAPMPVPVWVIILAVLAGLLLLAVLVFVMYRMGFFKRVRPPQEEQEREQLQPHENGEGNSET
Chain of human αvβ3 receptor (P05106 27-788): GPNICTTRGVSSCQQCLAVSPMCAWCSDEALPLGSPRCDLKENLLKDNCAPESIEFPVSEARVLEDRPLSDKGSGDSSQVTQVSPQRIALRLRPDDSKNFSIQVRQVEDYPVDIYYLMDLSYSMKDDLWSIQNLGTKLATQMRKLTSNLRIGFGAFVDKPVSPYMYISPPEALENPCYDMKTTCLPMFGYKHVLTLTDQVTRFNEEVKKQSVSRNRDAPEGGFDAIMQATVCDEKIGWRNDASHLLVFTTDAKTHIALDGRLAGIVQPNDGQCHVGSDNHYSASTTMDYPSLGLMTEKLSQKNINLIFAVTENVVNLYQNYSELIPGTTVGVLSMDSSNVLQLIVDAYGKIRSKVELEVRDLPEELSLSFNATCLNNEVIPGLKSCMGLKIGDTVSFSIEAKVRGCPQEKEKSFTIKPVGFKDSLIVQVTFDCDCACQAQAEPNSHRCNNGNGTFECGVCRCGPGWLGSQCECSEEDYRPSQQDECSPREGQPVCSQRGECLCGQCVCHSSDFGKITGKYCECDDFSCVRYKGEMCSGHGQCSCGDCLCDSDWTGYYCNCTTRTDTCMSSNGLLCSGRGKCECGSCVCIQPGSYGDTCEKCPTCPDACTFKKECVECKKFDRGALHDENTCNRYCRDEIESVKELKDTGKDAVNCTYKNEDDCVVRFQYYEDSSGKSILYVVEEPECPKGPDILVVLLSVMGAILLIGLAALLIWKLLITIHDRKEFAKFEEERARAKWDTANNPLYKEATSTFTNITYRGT

In this test the target is human αvβ3 receptor (Homo sapiens, UniProt P05106+P06756). In words: Kistrin/Vitronectin Receptor (αvβ3) ELISA test. Type of test: binding. The following applies: Kistrin-coated plates, co-incubated 3 hours at ambient temperature, 4B12-HRP antibody, OD 450 nm, read-out: K/VnR IC50. How it is done:
Kistrin/Vitronectin Receptor (αvβ3) ELISA Test
96-well MaxiSorp planes are coated overnight at […] with 100 μl of Kistrin at 1 μg/ml (dilution in a coating buffer: carbonate 0.05 M/NaOH pH 9.6). The next day, the wells are emptied and the ligands (kistrin) are then fixed (fixing buffers: PBS containing 0.5% BSA (pH=7.4)) for 1 hour at ambient temperature with gentle agitation at 125 rpm. The wells are washed six times (washing buffer: PBS containing 0.05% of Tween 20 (pH 7.7) then the following are added per well and in this order: • 40 μl of incubation buffer • 10 μl of the dilution of the product to be tested (the products are diluted in a 50:50 mixture DMSO/Water) • 50 μl of human αvβ3 receptor (cf Pytella et al. Methods Enzymol. (1987) 144 (Dilution in incubation buffer, to be adapted according to the receptor batch and according to the ligand). The ligand, the αvβ3 receptor and the products to be studied are co-incubated for 3 hours at ambient temperature with gentle agitation at 125 rpm.
The wells are again washed six times, then incubated for 2 hours at ambient temperature with gentle agitation at 125 rpm, in the presence of 100 μl of anti-receptor antibody conjugated to a peroxidase (The 4B12-HRP antibody is diluted in an incubation buffer (50 mM TRIS pH 7.4; 0.5% BSA; 0.05% Tween 20; 1 mM MnCl2; 50 μM CaCl2; 50 μM MgCl2; 100 mM NaCl) The dilution is adapted according to the receptor batch.
The wells are then washed six times before measuring the ligand-receptor bond carried out using a peroxidase developer kit (TBM Microwell Peroxidase Substrate System Kirkegaard; Cat. Ref. 50-76-00).
This kit contains a bottle A of substrate (3,3′,5,5′-tetramethylebenzidine at 0.4 g/l) and a bottle B (H2O2 at 0.02% in a Citrate/Citric acid buffer). Extemporaneously, a volume of A is mixed with a volume of B, then the reaction mixture is distributed at a rate of 100 μl/well.
The enzymatic reaction develops between 6 and 10 minutes for Kistrin/αvβ3 then its evolution is stopped by the addition of 100 μl of 1M phosphoric acid. The optical density is determined at 450 nm.
Expression of the Results
The following curve is plotted: the bond percentage as a function of the logarithm of each concentration of the tested product.
For each product, the IC50 is determined according to the following formula: IC50=(B0+Bmin)/2 • B0=Maximum bond in the absence of any product • Bmin =Minimum bond in the presence of the highest concentration of the product.
On the technique in general: An ELISA detects its analyte on a solid surface through an enzyme-linked reagent.
In the case of `O=C(CCCOc1ccc(C[C@H](Nc2nc3cc(S(=O)(=O)Nc4ccccc4)ccc3o2)C(=O)O)cc1)NC1=NCCCN1` [Example 30, N-[5-[(phenylamino)sulphonyl]-2-benzoxazolyl]-O-[4-oxo-4-[(1,4,5,6-tetrahydro-2-pyrimidinyl)amino]butyl]-L-tyrosine], the IC50 amounted to 7 nM.

Consider `CN(c1ccccc1)S(=O)(=O)c1ccc2oc(N[C@@H](Cc3ccc(OCCCC(=O)NC4=NCCCN4)cc3)C(=O)O)nc2c1` [Example 31, N-[5-[(N-methylphenylamino)sulphonyl]-2-benzoxazolyl]-O-[4-oxo-4-[(1,4,5,6-tetrahydro-2-pyrimidinyl)amino]butyl]-L-tyrosine], for which the IC50 was 5 nM.

Turning to `O=C(CCCOc1ccc(C[C@H](Nc2nc3ccc(Cl)cc3s2)C(=O)O)cc1)NC1=NCCCN1` [Example 32, N-(6-chloro-2-benzothiazolyl)-O-[4-oxo-4-[(1,4,5,6-tetrahydro-2-pyrimidinyl)amino]butyl]-L-tyrosine], the IC50 was 10 nM.

Consider `O=C(CCCOc1ccc(C[C@H](Nc2nc3cccc(Br)c3s2)C(=O)O)cc1)NC1=NCCCN1` [Example 33, N-(7-bromo-2-benzothiazolyl)-O-[4-oxo-4-[(1,4,5,6-tetrahydro-2-pyrimidinyl)amino]butyl]-L-tyrosine], for which the IC50 turned out to be 7 nM.

In the case of `O=C(CCCOc1ccc(C[C@H](Nc2nc3cc(Br)ccc3s2)C(=O)O)cc1)NC1=NCCCN1` [Example 34, N-(5-bromo-2-benzothiazolyl)-O-[4-oxo-4-[(1,4,5,6-tetrahydro-2-pyrimidinyl)amino]butyl]-L-tyrosine], the IC50 amounted to 18 nM.

Regarding `O=C(CCCOc1ccc(C[C@H](Nc2nc3ccccc3[nH]2)C(=O)O)cc1)NC1=NCCCN1` [Example 35, N-(1H-benzimidazol-2-yl)-O-[4-oxo-4-[(1,4,5,6-tetrahydro-2-pyrimidinyl)amino]butyl]-L-tyrosine], the IC50 was 18 nM.

The record behind these values is patent US6838453B2, “Antagonist derivatives of the vitronectin receptor” (Aventis Pharma S.A., priority 2000, dated 2005).
